The values below come from article PMC7179450, “Primary Human Hepatocytes, But not HepG2 or Balb/c 3T3 Cells, Efficiently Metabolize Salinomycin and Are Resistant to Its Cytotoxicity” (Molecules, 2020).

Data set [1] has as its system HepG2 cells. Put plainly: MTT assay, cytotoxicity in HepG2. The data set is classed as cell-based. The settings on record: Homo sapiens, mean ± SEM, n = 3, read-out: EC50 (effective concentration). Here is the method:
(§1) The HepG2 cell line was purchased from the American Type Culture Collection (ATCC® HB-8065™). The cells were cultured in Minimum Essential Medium Eagle (MEME) (Sigma–Aldrich Co. (St. Louis, MO, USA)). Normal murine embryonic fibroblasts, Balb/c 3T3 clone A31 cell line (gift from Department of Swine Diseases of the National Veterinary Research Institute in Pulawy) was cultured in Dulbecco’s Modified Eagle’s Medium (DMEM) (Invitrogen Corporations (Paisley, UK)). The media were supplemented with 10% BCS (Balb/c 3T3), 10% FBS (HepG2), 1% L-glutamine, and 1% antibiotic solution. The cells were maintained in 75 cm^2 cell culture flasks in humidified incubator at 37 °C, in an atmosphere of 5% CO2. […] The initial cell viability was determined with the trypan blue exclusion test. […]
(§2) The concentration ranges of the drugs were chosen according to their solubility and their plasma level. […] The cytotoxicity was assessed after 24 and 48 h of exposure of cell lines or after 12 and 24 h exposure of PHH. […]
The metabolic activity of living cells was assessed by measuring the activity of dehydrogenases. […] The plate was shaken for 15 min at room temperature and transferred to a microplate reader to measure the absorbance at 570 nm, using a blank as a reference. Cytotoxicity was expressed as a percentage of the negative control (0.1% or 0.2% DMSO).
On the technique in general: Tetrazolium assays rely on reduction of a dye to a coloured formazan, in cell work by metabolically active cells.

A further data set relates to dogs. The settings on record: chronic toxicity study in dogs; cited from earlier work.
The test system of data set [2] is HepG2 cells. Put plainly: LDH leakage assay in HepG2. In kind it is cell-based. The settings on record: Homo sapiens, mean ± SEM, n = 3, read-out: EC50 (effective concentration). As for the experimental part: as §1, §2
The integrity of the plasma membrane was assessed through the test of lactate dehydrogenase (LDH) release, which was monitored using a commercially available Cytotoxicity Detection Kit (LDH) (Roche Diagnostics, Basel, Switzerland). […] The absorbance was measured at 492 nm in a microplate reader using a blank as a reference.
Background: LDH in the medium is a marker of cell lysis.

For data set [3], the system named is HepG2 cells. The data set is described as follows: Biotransformation of SAL and metabolites in HepG2 (LC-MS/MS). The data set is classed as in vitro ADME, human. Particulars: HepG2, only after induction with prednisolone, 24 h (Figure 2C). As for the experimental part:
as §1
The medium samples from microplate wells were collected for identifying SAL metabolites and normalized to a cell number. An aliquot of 200 µL of each sample was measured to Eppendorf tube. […] The dry residue was reconstituted in 50% acetonitrile and analyzed with LC-MS/MS. […]
SAL (m/z 773.4 to m/z 431.3) was monitored in multiple reaction monitoring (MRM) modes. […]
The signals for further analysis were selected with the LightSight 2.3 software. […] These MRM transitions (with 20 chromatographic peaks) were then quantified with Multiquant 2.1. software. Quantitative analysis was performed for SAL. […]

SMILES strings stand for the structures.

As to `CC[C@@H](C(=O)[C@@H](C)[C@@H](O)[C@H](C)[C@@H]1O[C@@H]([C@@H](CC)C(=O)O)CC[C@@H]1C)[C@H]1O[C@]2(C=C[C@@H](O)[C@]3(CC[C@@](C)([C@H]4CC[C@](O)(CC)[C@H](C)O4)O3)O2)[C@H](C)C[C@@H]1C` [SAL, salinomycin], the EC50 is 15.4 ± 1.7 µg/mL in the data set with HepG2 cells [1] (24 h exposure), 12.9 ± 1.4 µg/mL in the data set on HepG2 cells [1] (48 h exposure), > 25 µg/mL in the data set with HepG2 cells [2] (24 h exposure) and 13.8 ± 0.2 µg/mL in the data set with HepG2 cells [2] (48 h exposure). The “NOAEL (No Observed Adverse Effect Level)” value in the data set with dogs was 500 µg/kg b.w. Further, the “percentage of SAL metabolised” value with HepG2 cells [3] is listed as “ca. 20%”.
